# Measurements as given in ChEMBL document CHEMBL2163236, “7-Oxo-[1,4]oxazino[2,3,4-ij]quinoline-6-carboxamides as selective CB(2) cannabinoid receptor ligands: structural investigations around a novel class of full agonists” (J Med Chem, 2012).
# How the values were obtained:
# [1] = biological target: T1, Cannabinoid receptor 2 (Homo sapiens, UniProt P34972); experiment: Displacement of [3H]CP-55940 from human recombinant CB2 receptor expressed in CHO cell membranes incubated for 60 mins by scintillation counting
# T1 sequence (P34972 whole entry): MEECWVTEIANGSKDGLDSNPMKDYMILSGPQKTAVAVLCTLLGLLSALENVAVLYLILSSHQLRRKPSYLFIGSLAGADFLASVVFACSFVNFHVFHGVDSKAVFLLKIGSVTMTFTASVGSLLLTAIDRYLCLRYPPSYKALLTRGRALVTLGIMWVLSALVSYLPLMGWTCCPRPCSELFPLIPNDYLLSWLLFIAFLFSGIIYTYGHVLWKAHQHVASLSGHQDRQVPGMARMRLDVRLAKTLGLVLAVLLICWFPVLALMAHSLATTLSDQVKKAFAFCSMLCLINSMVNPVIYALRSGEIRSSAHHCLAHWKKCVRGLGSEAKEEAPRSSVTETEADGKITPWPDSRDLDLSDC
# [2] = biological target: T1, Cannabinoid receptor 2; experiment: Agonist activity at human recombinant CB2 receptor expressed in CHO cell membranes assessed as inhibition of forskolin-induced cAMP accumulation; type: functional, cell-based
# [3] = biological target: T2, Cannabinoid receptor 2 (Rattus norvegicus, UniProt Q9QZN9); experiment: Displacement of [3H]CP-55940 from CB2 receptor in Sprague-Dawley rat spleen by scintillation counting
# T2 sequence (Q9QZN9 whole entry): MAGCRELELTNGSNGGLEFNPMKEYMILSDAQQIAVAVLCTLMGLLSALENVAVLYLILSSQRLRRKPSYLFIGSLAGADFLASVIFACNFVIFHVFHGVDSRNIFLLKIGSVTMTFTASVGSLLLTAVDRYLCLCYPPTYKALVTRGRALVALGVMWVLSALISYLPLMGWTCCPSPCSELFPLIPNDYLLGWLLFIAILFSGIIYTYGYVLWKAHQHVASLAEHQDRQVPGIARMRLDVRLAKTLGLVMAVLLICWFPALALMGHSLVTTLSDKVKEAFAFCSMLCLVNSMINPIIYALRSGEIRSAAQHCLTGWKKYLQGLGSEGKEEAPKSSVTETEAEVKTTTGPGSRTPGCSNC
# [4] = biological target: Cannabinoid receptor 1 (Rattus norvegicus, UniProt P20272); experiment: Displacement of [3H]CP-55940 from CB1 receptor in Sprague-Dawley rat brain by scintillation counting
# Sequence of Cannabinoid receptor 1 (Rattus norvegicus, UniProt P20272) (P20272 whole entry): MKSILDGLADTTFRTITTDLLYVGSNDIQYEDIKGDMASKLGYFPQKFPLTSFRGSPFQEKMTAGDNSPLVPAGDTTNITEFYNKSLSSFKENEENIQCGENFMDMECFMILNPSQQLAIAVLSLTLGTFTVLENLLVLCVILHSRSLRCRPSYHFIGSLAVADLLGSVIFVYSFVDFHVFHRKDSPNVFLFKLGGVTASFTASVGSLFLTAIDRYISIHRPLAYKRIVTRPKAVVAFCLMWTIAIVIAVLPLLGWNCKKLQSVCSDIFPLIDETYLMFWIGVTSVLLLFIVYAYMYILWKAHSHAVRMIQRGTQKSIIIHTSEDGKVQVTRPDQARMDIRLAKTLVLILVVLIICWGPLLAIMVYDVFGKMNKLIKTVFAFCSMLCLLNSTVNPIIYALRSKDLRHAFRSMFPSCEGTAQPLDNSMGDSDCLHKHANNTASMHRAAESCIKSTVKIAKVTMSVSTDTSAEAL
# [5] = species on record: Homo sapiens; experiment: Selectivity ratio of Ki for human recombinant CB1 receptor to KI for human recombinant CB2 receptor
# [6] = biological target: Cannabinoid receptor 1 (Homo sapiens, UniProt P21554); experiment: Displacement of [3H]CP-55940 from human recombinant CB1 receptor expressed in CHO cell membranes incubated for 90 mins by scintillation counting
# Sequence of Cannabinoid receptor 1 (Homo sapiens, UniProt P21554) (P21554 whole entry): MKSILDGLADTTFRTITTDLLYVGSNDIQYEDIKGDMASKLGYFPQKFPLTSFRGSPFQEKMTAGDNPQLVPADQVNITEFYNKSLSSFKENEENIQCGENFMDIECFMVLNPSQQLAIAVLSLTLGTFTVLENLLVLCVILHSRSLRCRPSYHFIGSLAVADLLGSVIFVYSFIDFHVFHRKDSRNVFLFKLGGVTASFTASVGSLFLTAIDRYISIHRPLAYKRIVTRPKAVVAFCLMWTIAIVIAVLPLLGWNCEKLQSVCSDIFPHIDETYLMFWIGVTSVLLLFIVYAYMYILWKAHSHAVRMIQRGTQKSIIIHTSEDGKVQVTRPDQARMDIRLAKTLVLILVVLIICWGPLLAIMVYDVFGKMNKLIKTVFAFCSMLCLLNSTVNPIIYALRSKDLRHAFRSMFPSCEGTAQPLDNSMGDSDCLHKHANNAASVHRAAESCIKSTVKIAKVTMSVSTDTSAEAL
Compound,Ki [1] [µM],IC50 [2] [µM],Ki [3] [µM],Ki [4] [µM],Ratio Ki [5],Ki [6] [µM]
CCC1COc2cccc3c(=O)c(C(=O)NC45CC6CC(CC(C6)C4)C5)cn1c23 (racemic),0.00783,0.038,0.0135,0.725,88,0.689
CCC1COc2cccc3c(=O)c(C(=O)NC4C5CC6CC(C5)CC4C6)cn1c23 (racemic),0.0132,0.057,0.0161,0.425,30,0.389
CCC1COc2cccc3c(=O)c(C(=O)NC(C)CCC(C)C)cn1c23 (racemic),0.0158,0.062,0.196,> 10,> 633,> 10
O=C(NC1CCCCC1)c1cn2c3c(cccc3c1=O)OCC2c1ccccc1 (racemic),0.00252,0.0152,0.0193,1.15,166,0.42
O=C(NC1CCCCCC1)c1cn2c3c(cccc3c1=O)OCC2c1ccccc1 (racemic),0.00081,0.00523,0.0147,0.372,383,0.31
O=C(NC12CC3CC(CC(C3)C1)C2)c1cn2c3c(cccc3c1=O)OCC2c1ccccc1 (racemic),0.0142,0.026,0.0183,0.67,19,0.265
CC12CC3CC(C)(C1)CC(NC(=O)c1cn4c5c(cccc5c1=O)OCC4c1ccccc1)(C3)C2 (racemic),0.00345,0.0183,0.046,0.545,133,0.46
CC1Oc2cccc3c(=O)c(C(=O)NC4CCCCC4)cn(c23)C1c1ccccc1 (racemic),0.536,2.75,0.71,3.52,5.83,3.13
CC1Oc2cccc3c(=O)c(C(=O)NC45CC6CC(CC(C6)C4)C5)cn(c23)C1c1ccccc1 (racemic),0.332,1.68,0.443,2.64,7.33,2.44
Cc1ccc(C2COc3cccc4c(=O)c(C(=O)NC5CCCCC5)cn2c34)cc1 (racemic),0.468,2.46,0.547,4.57,8.78,4.11
Cc1ccc(C2COc3cccc4c(=O)c(C(=O)NC56CC7CC(CC(C7)C5)C6)cn2c34)cc1 (racemic),0.412,2.21,0.482,4.15,9.41,3.88
Cc1cc2c3c(c1)c(=O)c(C(=O)NC1CCCCC1)cn3C(c1ccccc1)CO2 (racemic),0.0184,0.11,0.025,1.57,73,1.35
CC1COc2cccc3c(=O)c(C(=O)NC4CCCCC4)cn1c23 (racemic),0.06,0.245,0.065,2.63,36,2.15
CC1COc2cccc3c(=O)c(C(=O)NC4CCCCCC4)cn1c23 (racemic),0.038,0.21,0.052,> 10,> 263,> 10
CC1COc2cccc3c(=O)c(C(=O)NC45CC6CC(CC(C6)C4)C5)cn1c23 (racemic),0.047,0.23,0.055,> 10,> 212,> 10
CCC1COc2cccc3c(=O)c(C(=O)NC4CCCCC4)cn1c23 (racemic),0.022,0.062,0.024,0.972,37,0.821
CCC1COc2cccc3c(=O)c(C(=O)NC4CCCCCC4)cn1c23 (racemic),0.00924,0.042,0.0114,0.498,47,0.433
O=C(NC1CCCC1)c1cn2c3c(cccc3c1=O)OCC2c1ccccc1 (racemic),0.098,0.472,0.11,0.15,1.35,0.132
